Where a SMILES comes first, the peptide text is derived from it.
Molecular target: T1, recombinant human PEDF-R[1–288] (Homo sapiens, UniProt Q96AD5)
T1 construct: SUMOstar (N); His tag (N); made in house; host or cells: Escherichia coli Rosetta(DE3), co-transformed with pGro7 (groES-groEL)
T1 sequence (Q96AD5 1-288): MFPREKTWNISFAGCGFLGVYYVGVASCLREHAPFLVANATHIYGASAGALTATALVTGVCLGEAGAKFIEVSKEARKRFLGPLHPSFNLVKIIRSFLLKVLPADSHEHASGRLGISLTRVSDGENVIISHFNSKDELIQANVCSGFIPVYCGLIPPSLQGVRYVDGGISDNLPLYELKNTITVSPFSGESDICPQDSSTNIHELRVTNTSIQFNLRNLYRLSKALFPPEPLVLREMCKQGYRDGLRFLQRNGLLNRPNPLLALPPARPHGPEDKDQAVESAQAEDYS
Experiment: Phospholipase A2 activity assay (EnzChek)
Format: biochemical
Conditions: purified recombinant PEDF-R in the presence of peptides
Text: To obtain the PEDF-R protein, the following procedure was followed. For plasmid construction, the plasmid used for expression was pE-SUMOstar-PEDF-R[1–288] C-terminal TwinStrep tagged. This plasmid contained the coding sequence for the human PEDF-R open reading frame between positions 1 and 288. For transformation: The expression plasmid and pGro7(groES-groEL) were co-transformed into Escherichia coli Rosetta(DE3) to obtain colonies for recombinant protein expression[34],[35]. The transformed cells were plated on Luria-Bertani (LB) agar plate containing 10 μg/ml chloramphenicol and 100 µg/ml ampicillin followed by overnight incubation at 37 °C to obtain colonies. A total of 100 ml of LB media containing 10 μg/ml chloramphenicol and 100 µg/ml ampicillin was inoculated with a single colony and incubated at 37 °C with vigorous shaking overnight. Then, 1 liter of LB media containing 0.5 mg/ml L-(+) arabinose, 2% D-(+)-Glucose, 10 μg/ml chloramphenicol and 100 µg/ml ampicillin was inoculated with 2% of the overnight culture and incubated at 37 °C with vigorous shaking until the O.D.600 nm reached 0.5-0.6. […]
Phospholipase A2 (PLA2) activity was determined using EnzChek™ Phospholipase A2 Assay Kit (Thermo Fisher Scientific, cat. E10217) according to the manufacturer’s instructions and as described before. […] Fluorescence emission was measured at 515 nm with excitation at 460 nm. […]

CC[C@H](C)[C@H](NC(=O)[C@H](CC(C)C)NC(=O)[C@H](CC(=O)O)NC(=O)[C@H](Cc1ccc(O)cc1)NC(=O)[C@H](Cc1ccc(O)cc1)NC(=O)[C@H](CC(C)C)NC(=O)[C@H](C)NC(=O)[C@H](CCCNC(=N)N)NC(=O)[C@H](C)NC(=O)[C@@H](NC(=O)[C@@H](NC(=O)[C@H](CO)NC(=O)[C@H](CCC(=O)O)NC(=O)[C@@H](NC(=O)[C@H](CCCNC(=N)N)NC(=O)[C@@H](N)CCC(N)=O)[C@@H](C)O)[C@@H](C)CC)[C@@H](C)CC)C(=O)N[C@@H](CO)C(=O)O [H105A] (H-QRTESIIARALYYDLIS-OH)
stimulation of PLA2 activity of PEDF-R: functional effectors of PEDF-R

From publication PMC11928584, “H105A peptide eye drops promote photoreceptor survival in murine and human models of retinal degeneration” (Communications Medicine, 2025)
